The source of these data is ChEMBL document CHEMBL5465560, “Selectivity Literature for EUbOPEN Chemogenomic Library” (2024).

Assay [1] addresses T1, Serine/threonine-protein kinase 3 (Homo sapiens) (UniProt Q13188).
T1 sequence (whole entry): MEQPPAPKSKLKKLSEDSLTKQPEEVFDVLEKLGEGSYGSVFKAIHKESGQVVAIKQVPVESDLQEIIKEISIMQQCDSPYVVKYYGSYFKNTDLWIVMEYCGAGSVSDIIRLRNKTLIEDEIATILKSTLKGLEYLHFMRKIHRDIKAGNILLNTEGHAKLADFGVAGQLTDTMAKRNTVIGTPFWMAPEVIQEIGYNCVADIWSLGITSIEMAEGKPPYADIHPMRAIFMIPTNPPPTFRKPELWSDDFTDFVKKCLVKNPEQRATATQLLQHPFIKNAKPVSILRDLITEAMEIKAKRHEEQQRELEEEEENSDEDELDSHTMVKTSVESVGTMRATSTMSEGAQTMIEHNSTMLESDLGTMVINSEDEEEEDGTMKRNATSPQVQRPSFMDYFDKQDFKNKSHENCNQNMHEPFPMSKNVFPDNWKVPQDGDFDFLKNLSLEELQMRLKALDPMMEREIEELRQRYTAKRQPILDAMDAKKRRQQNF
As to the kind of experiment: Selectivity interaction (KinomeScan (DiscoverX)) EUB0000666a STK3. The note with it: at 10 µM.

Assay [2] addresses Receptor tyrosine-protein kinase erbB-2 (Homo sapiens, UniProt P04626). As to the kind of experiment: Selectivity interaction (KinomeScan (DiscoverX)) EUB0000229b ERBB2. Particulars: at 10 µM.
The target in assay [3] is Serine/threonine-protein kinase B-raf (Homo sapiens) (UniProt P15056). Particulars: at 10 µM.
The target of assay [4] is Tyrosine-protein kinase Fes/Fps (Homo sapiens) (UniProt P07332). In words: Selectivity interaction (ActivX KiNativ screen (ex vivo kinase selectivity in human PBMCs)) EUB0001619a FES. In kind it is cell-based. Particulars: PBMC, at 1 µM.
Assay [5] concerns the target Cyclin-dependent kinase 12 (Homo sapiens, UniProt Q9NYV4). As to the kind of experiment: Selectivity interaction (ActivX KiNativ screen (kinase selectivity in THP-1 cell lysates)) EUB0000639a CDK12. In kind it is subcellular. The note with it: lysate.
In assay [6] the target is T2, Megakaryocyte-associated tyrosine-protein kinase (Homo sapiens) (UniProt P42679).
T2 sequence (whole entry): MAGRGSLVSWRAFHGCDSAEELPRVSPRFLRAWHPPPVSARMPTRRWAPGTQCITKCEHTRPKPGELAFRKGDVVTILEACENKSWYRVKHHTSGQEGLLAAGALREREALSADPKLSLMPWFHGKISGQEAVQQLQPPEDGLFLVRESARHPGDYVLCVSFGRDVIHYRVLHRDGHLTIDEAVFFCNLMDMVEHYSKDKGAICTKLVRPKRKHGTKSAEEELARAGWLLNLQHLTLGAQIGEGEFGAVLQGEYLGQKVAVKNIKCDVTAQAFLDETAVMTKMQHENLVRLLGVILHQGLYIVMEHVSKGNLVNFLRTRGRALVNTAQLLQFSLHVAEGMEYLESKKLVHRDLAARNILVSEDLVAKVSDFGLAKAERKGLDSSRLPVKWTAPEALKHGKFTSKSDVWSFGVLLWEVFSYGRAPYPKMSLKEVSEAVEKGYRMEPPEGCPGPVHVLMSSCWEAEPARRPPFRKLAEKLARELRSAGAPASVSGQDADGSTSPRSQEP
In words: Selectivity interaction (ProQinase) EUB0000171b MATK.

The target of assay [7] is Bromodomain testis-specific protein (Homo sapiens) (UniProt Q58F21). As to the kind of experiment: Selectivity interaction (Human bromodomain panel (DSF assay)) EUB0000233b BRDT. Background: In DSF a fluorescence change marks the thermal transition of the protein.
The target in assay [8] is T3, Mitogen-activated protein kinase 12 (Homo sapiens) (UniProt P53778).
T3 sequence (whole entry): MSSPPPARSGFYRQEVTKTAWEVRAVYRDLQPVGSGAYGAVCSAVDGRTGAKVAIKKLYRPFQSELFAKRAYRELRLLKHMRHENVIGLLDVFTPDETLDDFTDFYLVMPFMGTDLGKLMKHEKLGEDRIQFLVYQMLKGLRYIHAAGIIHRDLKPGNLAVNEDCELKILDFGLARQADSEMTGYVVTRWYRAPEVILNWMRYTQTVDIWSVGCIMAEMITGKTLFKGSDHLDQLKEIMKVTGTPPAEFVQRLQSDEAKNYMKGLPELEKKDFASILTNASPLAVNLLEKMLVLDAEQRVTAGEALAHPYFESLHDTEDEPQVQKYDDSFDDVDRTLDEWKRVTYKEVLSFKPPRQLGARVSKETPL
In words: Selectivity interaction (KinomeScan (DiscoverX)) EUB0000045b MAPK12.

Chain of Cyclin-dependent kinase 12 (Q9NYV4 whole entry, looked up): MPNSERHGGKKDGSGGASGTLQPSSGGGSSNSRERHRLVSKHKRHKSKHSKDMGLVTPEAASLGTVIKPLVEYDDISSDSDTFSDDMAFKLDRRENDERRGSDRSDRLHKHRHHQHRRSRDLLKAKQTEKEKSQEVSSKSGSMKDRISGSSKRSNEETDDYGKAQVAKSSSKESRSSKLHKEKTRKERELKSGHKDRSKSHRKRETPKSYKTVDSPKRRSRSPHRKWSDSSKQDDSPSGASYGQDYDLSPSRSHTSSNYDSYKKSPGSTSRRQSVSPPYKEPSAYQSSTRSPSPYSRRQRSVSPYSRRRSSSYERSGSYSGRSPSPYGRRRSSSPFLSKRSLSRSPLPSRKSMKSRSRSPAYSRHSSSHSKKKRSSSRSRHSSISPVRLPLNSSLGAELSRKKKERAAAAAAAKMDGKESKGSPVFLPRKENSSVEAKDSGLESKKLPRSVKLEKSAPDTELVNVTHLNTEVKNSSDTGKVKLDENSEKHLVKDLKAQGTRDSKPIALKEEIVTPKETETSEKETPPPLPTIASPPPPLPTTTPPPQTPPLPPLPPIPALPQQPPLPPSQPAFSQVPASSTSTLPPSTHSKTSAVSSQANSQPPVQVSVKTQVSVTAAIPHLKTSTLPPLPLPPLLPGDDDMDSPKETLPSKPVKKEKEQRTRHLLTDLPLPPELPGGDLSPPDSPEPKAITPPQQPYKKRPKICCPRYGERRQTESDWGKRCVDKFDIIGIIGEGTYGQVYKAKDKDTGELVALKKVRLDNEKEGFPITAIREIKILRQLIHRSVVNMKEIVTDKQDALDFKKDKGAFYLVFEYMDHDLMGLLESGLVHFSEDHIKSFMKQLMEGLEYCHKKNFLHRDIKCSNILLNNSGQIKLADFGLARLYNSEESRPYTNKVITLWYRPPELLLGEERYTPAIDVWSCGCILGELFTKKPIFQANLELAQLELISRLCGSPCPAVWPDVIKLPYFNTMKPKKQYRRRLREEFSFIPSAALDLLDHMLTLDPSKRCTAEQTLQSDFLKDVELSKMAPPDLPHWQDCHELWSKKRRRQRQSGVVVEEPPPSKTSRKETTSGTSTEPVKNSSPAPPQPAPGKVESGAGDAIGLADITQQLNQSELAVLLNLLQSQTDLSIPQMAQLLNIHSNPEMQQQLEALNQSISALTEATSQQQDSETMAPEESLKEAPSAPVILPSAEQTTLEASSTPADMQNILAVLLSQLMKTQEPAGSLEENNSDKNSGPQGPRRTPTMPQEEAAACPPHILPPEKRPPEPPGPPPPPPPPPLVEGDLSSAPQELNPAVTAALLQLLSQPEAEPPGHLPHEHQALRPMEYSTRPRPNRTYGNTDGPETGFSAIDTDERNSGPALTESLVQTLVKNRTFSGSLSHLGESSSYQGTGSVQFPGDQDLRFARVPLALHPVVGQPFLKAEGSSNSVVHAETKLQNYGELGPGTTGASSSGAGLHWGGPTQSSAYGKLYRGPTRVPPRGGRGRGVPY
Chain of Serine/threonine-protein kinase B-raf (Homo sapiens) (P15056 whole entry): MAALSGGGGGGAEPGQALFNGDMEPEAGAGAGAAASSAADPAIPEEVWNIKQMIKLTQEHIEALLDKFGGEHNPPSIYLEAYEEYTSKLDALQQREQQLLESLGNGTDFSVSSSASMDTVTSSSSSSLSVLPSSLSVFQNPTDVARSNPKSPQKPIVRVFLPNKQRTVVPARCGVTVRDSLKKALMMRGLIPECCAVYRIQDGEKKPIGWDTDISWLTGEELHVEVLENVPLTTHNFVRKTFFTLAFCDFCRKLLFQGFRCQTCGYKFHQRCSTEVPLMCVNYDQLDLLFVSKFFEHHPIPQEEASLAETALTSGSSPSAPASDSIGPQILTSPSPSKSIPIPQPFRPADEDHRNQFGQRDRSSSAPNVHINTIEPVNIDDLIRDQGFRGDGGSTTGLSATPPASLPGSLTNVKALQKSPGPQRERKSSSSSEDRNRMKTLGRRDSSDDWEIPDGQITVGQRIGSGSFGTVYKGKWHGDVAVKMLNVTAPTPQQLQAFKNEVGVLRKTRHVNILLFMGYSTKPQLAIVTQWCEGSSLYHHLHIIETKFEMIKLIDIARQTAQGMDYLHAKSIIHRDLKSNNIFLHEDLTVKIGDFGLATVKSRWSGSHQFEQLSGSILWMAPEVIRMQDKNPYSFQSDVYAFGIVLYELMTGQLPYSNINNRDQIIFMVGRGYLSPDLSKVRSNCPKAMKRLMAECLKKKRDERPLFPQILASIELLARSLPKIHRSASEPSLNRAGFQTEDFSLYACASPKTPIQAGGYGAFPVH
Chain of Tyrosine-protein kinase Fes/Fps (Homo sapiens) (P07332 whole entry): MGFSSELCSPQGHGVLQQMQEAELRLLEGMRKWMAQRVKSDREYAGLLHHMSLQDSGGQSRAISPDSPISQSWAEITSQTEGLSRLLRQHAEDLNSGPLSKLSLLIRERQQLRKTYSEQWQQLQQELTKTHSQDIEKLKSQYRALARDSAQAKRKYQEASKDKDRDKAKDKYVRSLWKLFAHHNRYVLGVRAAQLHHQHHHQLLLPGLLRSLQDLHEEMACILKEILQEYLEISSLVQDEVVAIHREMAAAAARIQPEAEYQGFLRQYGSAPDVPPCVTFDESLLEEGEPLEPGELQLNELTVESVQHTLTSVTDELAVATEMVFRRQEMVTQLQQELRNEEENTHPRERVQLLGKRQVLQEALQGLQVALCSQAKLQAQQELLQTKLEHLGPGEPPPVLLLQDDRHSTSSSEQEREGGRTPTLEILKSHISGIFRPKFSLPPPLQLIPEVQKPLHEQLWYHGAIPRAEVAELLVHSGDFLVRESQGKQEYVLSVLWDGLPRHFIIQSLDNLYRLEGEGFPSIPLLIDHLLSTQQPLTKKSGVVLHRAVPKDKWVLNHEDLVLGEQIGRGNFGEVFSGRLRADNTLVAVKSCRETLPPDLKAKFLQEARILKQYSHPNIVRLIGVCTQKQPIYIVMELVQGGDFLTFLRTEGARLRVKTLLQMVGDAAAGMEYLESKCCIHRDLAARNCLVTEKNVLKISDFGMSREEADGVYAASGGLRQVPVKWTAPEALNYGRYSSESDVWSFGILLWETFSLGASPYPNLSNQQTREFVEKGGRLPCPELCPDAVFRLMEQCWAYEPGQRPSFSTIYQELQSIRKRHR
Chain of Receptor tyrosine-protein kinase erbB-2 (P04626 whole entry): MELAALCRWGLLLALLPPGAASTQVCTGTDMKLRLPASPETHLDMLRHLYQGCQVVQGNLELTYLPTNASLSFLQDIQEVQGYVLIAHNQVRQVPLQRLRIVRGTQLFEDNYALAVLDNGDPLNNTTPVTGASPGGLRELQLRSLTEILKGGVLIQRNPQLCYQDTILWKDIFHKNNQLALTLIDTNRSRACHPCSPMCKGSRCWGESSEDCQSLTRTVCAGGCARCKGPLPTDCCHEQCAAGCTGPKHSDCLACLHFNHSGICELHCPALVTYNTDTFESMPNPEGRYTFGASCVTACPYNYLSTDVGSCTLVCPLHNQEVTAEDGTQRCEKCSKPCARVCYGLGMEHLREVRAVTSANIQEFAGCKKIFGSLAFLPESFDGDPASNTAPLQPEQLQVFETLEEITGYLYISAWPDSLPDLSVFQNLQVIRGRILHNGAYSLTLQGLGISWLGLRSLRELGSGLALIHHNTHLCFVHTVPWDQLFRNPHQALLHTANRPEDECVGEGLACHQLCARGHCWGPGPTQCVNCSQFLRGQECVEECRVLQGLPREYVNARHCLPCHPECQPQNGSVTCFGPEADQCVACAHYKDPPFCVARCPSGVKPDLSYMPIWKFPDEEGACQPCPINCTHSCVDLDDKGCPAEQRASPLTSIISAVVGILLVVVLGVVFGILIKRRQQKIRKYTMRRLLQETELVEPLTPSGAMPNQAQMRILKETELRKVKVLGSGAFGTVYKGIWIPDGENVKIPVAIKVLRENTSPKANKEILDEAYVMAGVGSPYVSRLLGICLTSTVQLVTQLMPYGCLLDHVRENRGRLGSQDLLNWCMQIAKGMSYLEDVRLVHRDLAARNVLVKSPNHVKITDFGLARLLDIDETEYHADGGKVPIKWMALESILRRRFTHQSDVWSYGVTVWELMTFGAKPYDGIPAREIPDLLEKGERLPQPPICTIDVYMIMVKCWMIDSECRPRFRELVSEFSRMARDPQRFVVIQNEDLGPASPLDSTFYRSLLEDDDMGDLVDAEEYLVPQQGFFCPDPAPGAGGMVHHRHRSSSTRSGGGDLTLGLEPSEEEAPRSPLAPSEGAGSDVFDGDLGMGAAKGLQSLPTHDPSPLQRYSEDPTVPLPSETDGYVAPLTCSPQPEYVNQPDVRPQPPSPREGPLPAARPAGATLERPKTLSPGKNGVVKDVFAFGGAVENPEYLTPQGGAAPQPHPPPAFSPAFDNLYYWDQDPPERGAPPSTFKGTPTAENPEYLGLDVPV

`O=C(NOC[C@H](O)CO)c1ccc(F)c(F)c1Nc1ccc(I)cc1F` had a % of control in assay [1] of 90%.

In assay [2], `COc1cc(N(C)c2ccnc3ccc(C(F)(F)F)cc23)cc(OC)c1OC` registered a % binding of 62%.

`CN(C)CCOc1ccc(-c2nc(-c3ccncc3)c(-c3ccc4c(c3)CC/C4=N\O)[nH]2)cc1` showed a % of control in assay [3] of 0%.

Turning to `N#Cc1cccc(-c2c[nH]c3ncnc(N4CCOCC4)c23)c1`, in assay [4], the % of inhibition was determined as 7%.

Consider `CC[C@@H]1[C@H](F)C(=O)N[C@@H]1COc1nccc2cc(C(N)=O)c(OC)cc12` [ZIMLOVISERTIB], for which the % of inhibition was -24.7% in assay [5] (at 0.01 µM); -15% in assay [5] (at 0.04 µM); -4.7% in assay [5] (at 0.2 µM); -15.6% in assay [5] (at 1 µM); -19.6% in assay [5] (at 5 µM).

Take `C=CC(=O)Nc1cccc(C(=O)Nc2ccc(Nc3cc(-c4[nH]c(SC)nc4C)ccn3)cc2)c1`: the % of control in assay [6] (at 1 µM) came to 92%; in assay [6] (at 5 µM) it was 111%.

Compound `CN(C)CCCOc1ccc(-c2cc(NCCCn3cccn3)nc(S(C)(=O)=O)n2)cc1` returned a dTM in assay [7] of less than 2 K.

For the compound `C=CC(=O)Nc1cc(-n2c(=O)ccc3cnc4ccc(-c5ccc(NS(C)(=O)=O)cc5)cc4c32)ccc1C`, the % of control in assay [8] (at 1 µM) was determined as 72%; in assay [8] (at 10 µM), 79%.
